In US10765764B2, “Probes for imaging huntingtin protein” (CHDI Foundation, Inc., priority 2015, dated 2020) one finds IC50 data, which are given here for 31 molecules.

Each structure is given as a SMILES string.

T1 sequence (P42858 with tags, fused parts or gaps with the stated changes, form open): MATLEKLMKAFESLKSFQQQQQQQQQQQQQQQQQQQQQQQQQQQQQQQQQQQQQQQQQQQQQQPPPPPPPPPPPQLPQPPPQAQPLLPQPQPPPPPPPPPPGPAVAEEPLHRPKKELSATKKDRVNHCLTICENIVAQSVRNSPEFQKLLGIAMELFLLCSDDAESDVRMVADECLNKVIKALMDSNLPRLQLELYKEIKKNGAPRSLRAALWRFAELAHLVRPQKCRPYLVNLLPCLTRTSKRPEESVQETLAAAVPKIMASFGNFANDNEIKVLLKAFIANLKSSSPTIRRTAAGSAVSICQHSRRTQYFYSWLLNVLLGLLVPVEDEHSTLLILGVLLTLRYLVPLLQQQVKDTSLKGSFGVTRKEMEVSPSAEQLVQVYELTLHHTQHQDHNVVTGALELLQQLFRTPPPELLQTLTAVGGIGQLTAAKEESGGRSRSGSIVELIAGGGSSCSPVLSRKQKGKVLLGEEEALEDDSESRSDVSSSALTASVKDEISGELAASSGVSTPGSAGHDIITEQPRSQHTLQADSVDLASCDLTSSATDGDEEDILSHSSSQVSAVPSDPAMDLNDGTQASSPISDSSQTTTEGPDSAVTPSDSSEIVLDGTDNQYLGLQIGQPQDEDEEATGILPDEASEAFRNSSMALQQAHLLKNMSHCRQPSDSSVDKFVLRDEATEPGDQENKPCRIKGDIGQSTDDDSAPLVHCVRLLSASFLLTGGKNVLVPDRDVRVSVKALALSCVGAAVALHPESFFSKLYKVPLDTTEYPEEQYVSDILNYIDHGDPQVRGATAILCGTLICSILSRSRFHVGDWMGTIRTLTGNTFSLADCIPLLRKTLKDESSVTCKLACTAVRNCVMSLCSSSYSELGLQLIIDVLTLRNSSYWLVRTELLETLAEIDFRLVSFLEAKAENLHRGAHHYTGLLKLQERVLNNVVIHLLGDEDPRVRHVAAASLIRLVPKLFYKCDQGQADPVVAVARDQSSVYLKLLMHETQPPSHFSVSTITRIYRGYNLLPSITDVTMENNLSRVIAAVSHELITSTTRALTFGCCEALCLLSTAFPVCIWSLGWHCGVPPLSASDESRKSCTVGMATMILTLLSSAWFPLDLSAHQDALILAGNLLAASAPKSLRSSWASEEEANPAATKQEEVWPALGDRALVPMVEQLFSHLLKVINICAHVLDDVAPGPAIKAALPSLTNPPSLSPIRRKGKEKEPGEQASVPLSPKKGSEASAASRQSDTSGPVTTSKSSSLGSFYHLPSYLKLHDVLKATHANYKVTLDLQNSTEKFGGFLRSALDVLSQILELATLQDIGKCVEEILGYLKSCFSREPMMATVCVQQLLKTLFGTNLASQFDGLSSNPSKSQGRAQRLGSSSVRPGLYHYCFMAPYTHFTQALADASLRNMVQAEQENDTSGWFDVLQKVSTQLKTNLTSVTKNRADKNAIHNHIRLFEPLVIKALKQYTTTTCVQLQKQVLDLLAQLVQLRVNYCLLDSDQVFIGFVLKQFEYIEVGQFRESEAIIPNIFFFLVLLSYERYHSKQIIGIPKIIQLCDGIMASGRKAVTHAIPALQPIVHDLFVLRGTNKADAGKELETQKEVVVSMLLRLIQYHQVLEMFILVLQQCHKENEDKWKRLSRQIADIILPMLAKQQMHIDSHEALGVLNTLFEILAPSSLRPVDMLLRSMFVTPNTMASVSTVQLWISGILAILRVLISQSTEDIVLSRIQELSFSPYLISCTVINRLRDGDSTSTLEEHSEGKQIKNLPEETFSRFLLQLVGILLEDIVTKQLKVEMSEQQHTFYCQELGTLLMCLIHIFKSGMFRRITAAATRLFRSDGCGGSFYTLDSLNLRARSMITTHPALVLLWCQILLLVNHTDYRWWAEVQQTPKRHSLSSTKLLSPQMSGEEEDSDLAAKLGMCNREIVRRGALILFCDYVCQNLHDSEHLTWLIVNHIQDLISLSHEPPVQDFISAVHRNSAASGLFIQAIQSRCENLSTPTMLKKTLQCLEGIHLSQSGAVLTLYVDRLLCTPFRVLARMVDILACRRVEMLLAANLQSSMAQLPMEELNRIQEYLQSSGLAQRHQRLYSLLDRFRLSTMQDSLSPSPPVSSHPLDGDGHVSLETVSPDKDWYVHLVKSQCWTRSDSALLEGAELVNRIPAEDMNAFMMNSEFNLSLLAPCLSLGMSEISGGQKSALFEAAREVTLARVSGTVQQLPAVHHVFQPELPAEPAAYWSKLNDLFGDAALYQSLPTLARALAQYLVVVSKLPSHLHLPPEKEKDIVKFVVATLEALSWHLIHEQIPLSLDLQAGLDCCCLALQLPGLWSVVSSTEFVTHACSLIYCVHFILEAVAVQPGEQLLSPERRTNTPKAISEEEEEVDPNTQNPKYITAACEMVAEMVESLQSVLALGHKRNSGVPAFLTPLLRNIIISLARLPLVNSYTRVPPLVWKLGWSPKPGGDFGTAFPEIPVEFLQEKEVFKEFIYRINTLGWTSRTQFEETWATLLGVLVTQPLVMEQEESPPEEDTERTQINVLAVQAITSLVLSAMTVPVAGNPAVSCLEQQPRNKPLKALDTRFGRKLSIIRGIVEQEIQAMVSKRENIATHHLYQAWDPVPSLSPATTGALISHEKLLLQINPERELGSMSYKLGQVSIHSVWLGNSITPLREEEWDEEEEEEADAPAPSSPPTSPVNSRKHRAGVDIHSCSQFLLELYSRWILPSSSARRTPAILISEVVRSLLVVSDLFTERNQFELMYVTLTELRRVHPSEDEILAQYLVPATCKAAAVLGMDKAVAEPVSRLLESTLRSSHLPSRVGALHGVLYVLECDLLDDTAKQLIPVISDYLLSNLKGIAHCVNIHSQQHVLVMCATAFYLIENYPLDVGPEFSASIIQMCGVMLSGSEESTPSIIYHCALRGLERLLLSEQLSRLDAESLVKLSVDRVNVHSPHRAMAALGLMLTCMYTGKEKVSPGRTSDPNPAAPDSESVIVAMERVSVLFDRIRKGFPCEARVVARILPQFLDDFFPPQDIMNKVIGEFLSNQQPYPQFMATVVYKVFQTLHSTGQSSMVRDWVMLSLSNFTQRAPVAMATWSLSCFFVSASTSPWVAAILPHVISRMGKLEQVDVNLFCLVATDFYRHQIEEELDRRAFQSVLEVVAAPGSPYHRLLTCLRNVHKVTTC

This test addresses T1, Q46 protein aggregates (Homo sapiens, UniProt P42858).
T1 construct: fused on or other part: An N-terminal GST tag, cleaved off with thrombin before the assay to trigger aggregation
As to the kind of experiment: Q46 Radioligand Binding Assay (RBA), displacement of [^3H3]MK-3328. To be noted: 10 nM [^3H3]MK-3328, 5 μM Q46 protein aggregates. The procedure:
For radioligand binding assays (RBA) GST-Q46 protein was generated based on a previous publication (Scherzinger et al. Cell, Vol. 90, 549-558, Aug. 8, 1997). For experiments 33 μM GST-Q46 was incubated with 150 μg/mL thrombin in assay buffer (150 mM NaCl, 50 mM Tris pH 8.0) and 2 mM CaCl2 for 16 hours at 37° C. Aggregated Q46 was pelleted by centrifugation for 5 minutes at 13,000 rpm in a bench top centrifuge and re-dissolved in the same volume of assay buffer. Test compounds were prepared by titration in DMSO at 11 concentrations from 33 μM to 1 nM. For the RBA, Q46 protein aggregates and test compounds were pre-incubated in assay buffer for 20 minutes at room temperature, in 140 μL/well in a 96-well plate (pp, round bottom). Then, ligand was added in 10 μL/well and incubated for 60 minutes at 37° C. Final assay concentrations were 1 μM to 30 pM test compound, 5 μM Q46 protein (equivalent monomer concentration) and 10 nM ligand [^3H3]MK-3328 (Harrision et al., ACS Med. Chem. Lett., 2 (2011), pp 498-502). Samples were transferred onto GF/B filter plates and washed 2× with 200 μL PBS using a Filtermate Harvester. After drying filter plates for 1 hour at 37° C., the back of the plates was sealed with foil and 30 μl/well scintillation fluid (Packard MicroScint 40) was added, incubated for incubated for 15 minutes in the dark and counted in a TopCount reader. For analysis, replicate data from independent assay plates were normalized towards 0% and 100% inhibition using control wells of vehicle (0% inhibition) and 3 μM unlabelled MK-3328 (100% inhibition). IC50 values were determined with a sigmoidal inhibition model with four variables (top, bottom, slope, IC50) in a global fit using the normalized replicate data.
A word on the IC50: it is the concentration that inhibits the measured activity by half. Low values mean inhibition by little substance, high ones a need for much substance. On to `COc1ccc2c(c1)nc1sc(C(=O)Nc3cnc(C)nc3)cn12` [10-methoxy-N-(2-methylpyrimidin-5-yl)-5-thia-2,7-diazatricyclo[6.4.0.0^2,6]dodeca-1(8),3,6,9,11-pentaene-4-carboxamide], for which the IC50 was under 100 nM.

On to `COc1ccc2c(c1)nc1nc(C(=O)Nc3ccc(-n4ccnc4)nc3)ccn12` [N-[6-(1H-imidazol-1-yl)pyridin-3-yl]-5-methoxy-1,8,10-triazatricyclo[7.4.0.0^2,7]trideca-2(7),3,5,8,10,12-hexaene-11-carboxamide], for which the IC50 was under 100 nM.

In turn, `COc1ccc2c(c1)sc1nc(C(=O)Nc3ccc(-n4ccnc4)nc3)cn12` [N-[6-(1H-imidazol-1-yl)pyridin-3-yl]-10-methoxy-7-thia-2,5-diazatricyclo[6.4.0.0^2,6]dodeca-1(12),3,5,8,10-pentaene-4-carboxamide] displayed a concentration for half-maximal inhibition (IC50) of under 100 nM.

Take `COc1ccc2c(c1)nc1nc(C(=O)Nc3ccc(OC)nc3)ccn12` [5-methoxy-N-(6-methoxypyridin-3-yl)-1,8,10-triazatricyclo[7.4.0.0^2,7]trideca-2(7),3,5,8,10,12-hexaene-11-carboxamide]: the IC50 is under 100 nM. As to `N#Cc1cnccc1NC(=O)c1ccn2c(n1)nc1ccccc12` [N-(3-cyanopyridin-4-yl)-1,8,10-triazatricyclo[7.4.0.0^2,7]trideca-2(7),3,5,8,10,12-hexaene-11-carboxamide], the IC50 is under 100 nM. The result for `COc1ccc2c(c1)sc1nc(C(=O)Nc3cccnc3)cn12` [10-methoxy-N-(pyridin-3-yl)-7-thia-2,5-diazatricyclo[6.4.0.0^2,6]dodeca-1(12),3,5,8,10-pentaene-4-carboxamide] reads under 100 nM; that for `COc1cncc(NC(=O)c2cn3c(n2)sc2cc(CN(C)C)ccc23)c1` [10-[(dimethylamino)methyl]-N-(5-methoxypyridin-3-yl)-7-thia-2,5-diazatricyclo[6.4.0.0^2,6]dodeca-1(12),3,5,8,10-pentaene-4-carboxamide], 100 to 500 nM; that for `COc1ccc2c(c1)sc1nc(C(=O)Nc3ccc(OC)nc3)cn12` [10-methoxy-N-(6-methoxypyridin-3-yl)-7-thia-2,5-diazatricyclo[6.4.0.0^2,6]dodeca-1(12),3,5,8,10-pentaene-4-carboxamide], under 100 nM. Turning to `CNC(=O)c1ccc(NC(=O)c2cn3c(n2)sc2cc(OC)ccc23)cn1` [10-methoxy-N-[6-(methylcarbamoyl)pyridin-3-yl]-7-thia-2,5-diazatricyclo[6.4.0.0^2,6]dodeca-1(12),3,5,8,10-pentaene-4-carboxamide], the concentration for half-maximal inhibition (IC50) is under 100 nM. The result for `COc1cncc(NC(=O)c2ccn3c(n2)nc2ccc(OC)cc23)c1` [4-methoxy-N-(5-methoxypyridin-3-yl)-1,8,10-triazatricyclo[7.4.0.0^2,7]trideca-2(7),3,5,8,10,12-hexaene-11-carboxamide] reads under 100 nM. The result for `CNCc1cccc(NC(=O)c2cn3c(n2)sc2cc(OC)ccc23)c1` [10-methoxy-N-{3-[(methylamino)methyl]phenyl}-7-thia-2,5-diazatricyclo[6.4.0.0^2,6]dodeca-1(8),3,5,9,11-pentaene-4-carboxamide] reads under 100 nM.

`COc1cncc(NC(=O)c2ccn3c(n2)nc2cc(OC)ccc23)c1` [5-methoxy-N-(5-methoxypyridin-3-yl)-1,8,10-triazatricyclo[7.4.0.0^2,7]trideca-2(7),3,5,8,10,12-hexaene-11-carboxamide] yielded an IC50 of under 100 nM. `COc1ccc2c(c1)sc1nc(C(=O)Nc3ccc4occc4c3)cn12` [N-(1-benzofuran-5-yl)-10-methoxy-7-thia-2,5-diazatricyclo[6.4.0.0^2,6]dodeca-1(12),3,5,8,10-pentaene-4-carboxamide] showed an IC50 of under 100 nM.

Regarding `COc1ccc2c(c1)sc1nc(C(=O)Nc3ccc(=O)[nH]c3)cn12` [10-methoxy-N-(6-oxo-1,6-dihydropyridin-3-yl)-7-thia-2,5-diazatricyclo[6.4.0.0^2,6]dodeca-1(12),3,5,8,10-pentaene-4-carboxamide], the IC50 was under 100 nM. As to `COc1ccc2c(c1)sc1nc(C(=O)Nc3cnccn3)cn12` [10-methoxy-N-(pyrazin-2-yl)-7-thia-2,5-diazatricyclo[6.4.0.0^2,6]dodeca-1(12),3,5,8,10-pentaene-4-carboxamide], the half-inhibitory concentration (IC50) was under 100 nM. The result for `COc1ccc2c(c1)nc1nc(C(=O)Nc3cccnc3)ccn12` [5-methoxy-N-(pyridin-3-yl)-1,8,10-triazatricyclo[7.4.0.0^2,7]trideca-2(7),3,5,8,10,12-hexaene-11-carboxamide] reads under 100 nM; that for `COc1ccc2c(c1)nc1nc(C(=O)N3Cc4cnn(C)c4C3)ccn12` [5-methoxy-11-{1-methyl-1H,4H,5H,6H-pyrrolo[3,4-c]pyrazole-5-carbonyl}-1,8,10-triazatricyclo[7.4.0.0^2,7]trideca-2(7),3,5,8,10,12-hexaene], under 100 nM; that for `COc1ccc2c(c1)sc1nc(C(=O)Nc3ccc(C)nc3)cn12` [10-methoxy-N-(6-methylpyridin-3-yl)-7-thia-2,5-diazatricyclo[6.4.0.0^2,6]dodeca-1(12),3,5,8,10-pentaene-4-carboxamide], under 100 nM. The result for `Cn1cc(NC(=O)c2ccn3c(n2)nc2ccccc23)ccc1=O` [N-(1-methyl-6-oxo-1,6-dihydropyridin-3-yl)-1,8,10-triazatricyclo[7.4.0.0^2,7]trideca-2(7),3,5,8,10,12-hexaene-11-carboxamide] reads 100 to 500 nM; that for `COc1ccc2c(c1)sc1nc(C(=O)N3Cc4cnn(C)c4C3)cn12` [10-methoxy-4-{1-methyl-1H,4H,5H,6H-pyrrolo[3,4-c]pyrazole-5-carbonyl}-7-thia-2,5-diazatricyclo[6.4.0.0^2,6]dodeca-1(12),3,5,8,10-pentaene], under 100 nM; that for `C=CCOc1ccc2c(c1)sc1nc(C(=O)Nc3ccc(=O)n(C)n3)cn12` [N-(1-methyl-6-oxo-1,6-dihydropyridazin-3-yl)-10-(prop-2-en-1-yloxy)-7-thia-2,5-diazatricyclo[6.4.0.0^2,6]dodeca-1(12),3,5,8,10-pentaene-4-carboxamide], under 100 nM. With `COc1ccc2c(c1)sc1nc(C(=O)NCCN(C)C)cn12` [N-[2-(dimethylamino)ethyl]-10-methoxy-7-thia-2,5-diazatricyclo[6.4.0.0^2,6]dodeca-1(12),3,5,8,10-pentaene-4-carboxamide], the 50% inhibitory concentration (IC50) fell in the range of 100 to 500 nM. Molecule `Cn1cc(NC(=O)c2ccn3c(n2)nc2ccccc23)cnc1=O` [N-(1-methyl-2-oxo-1,2-dihydropyrimidin-5-yl)-1,8,10-triazatricyclo[7.4.0.0^2,7]trideca-2(7),3,5,8,10,12-hexaene-11-carboxamide] registered a half-maximal inhibitory concentration (IC50) of under 100 nM.

`COc1cc(NC(=O)c2ccn3c(n2)nc2ccccc23)ccn1` [N-(2-methoxypyridin-4-yl)-1,8,10-triazatricyclo[7.4.0.0^2,7]trideca-2(7),3,5,8,10,12-hexaene-11-carboxamide]: the concentration for half-maximal inhibition (IC50) is under 100 nM. For the molecule `COc1ccc(NC(=O)c2ccn3c(n2)nc2ccccc23)cn1` [N-(6-methoxypyridin-3-yl)-1,8,10-triazatricyclo[7.4.0.0^2,7]trideca-2(7),3,5,8,10,12-hexaene-11-carboxamide], the IC50 is under 100 nM. `COc1cncc(NC(=O)c2ccn3c(n2)nc2ccccc23)c1` [N-(5-methoxypyridin-3-yl)-1,8,10-triazatricyclo[7.4.0.0^2,7]trideca-2(7),3,5,8,10,12-hexaene-11-carboxamide] yielded a concentration for half-maximal inhibition (IC50) of under 100 nM. The result for `COCCOc1cncc(NC(=O)c2ccn3c(n2)nc2ccccc23)c1` [N-[5-(2-methoxyethoxy)pyridin-3-yl]-1,8,10-triazatricyclo[7.4.0.0^2,7]trideca-2(7),3,5,8,10,12-hexaene-11-carboxamide] reads under 100 nM.

As for `O=C(Nc1ccc(=O)[nH]c1)c1ccn2c(n1)nc1ccccc12` [N-(6-oxo-1,6-dihydropyridin-3-yl)-1,8,10-triazatricyclo[7.4.0.0^2,7]trideca-2(7),3,5,8,10,12-hexaene-11-carboxamide], the IC50 is under 100 nM. Consider `COc1nccc(NC(=O)c2ccn3c(n2)nc2ccccc23)c1C#N` [N-(3-cyano-2-methoxypyridin-4-yl)-1,8,10-triazatricyclo[7.4.0.0^2,7]trideca-2(7),3,5,8,10,12-hexaene-11-carboxamide], for which the IC50 was under 100 nM. The result for `COc1ccc2c(c1)sc1nc(C(=O)N(C)c3cccnc3)cn12` [10-methoxy-N-methyl-N-(pyridin-3-yl)-7-thia-2,5-diazatricyclo[6.4.0.0^2,6]dodeca-1(12),3,5,8,10-pentaene-4-carboxamide] reads 100 to 500 nM; that for `COc1cncc(NC(=O)c2cn3c(n2)sc2ccccc23)c1` [N-(5-methoxypyridin-3-yl)-7-thia-2,5-diazatricyclo[6.4.0.0^2,6]dodeca-1(12),3,5,8,10-pentaene-4-carboxamide], under 100 nM.
